This is an account of results in ChEMBL document CHEMBL3045996, “Use of classical and 3-D QSAR to examine the hydration state of juvenile hormone esterase inhibitors” (Bioorg Med Chem, 2003).

The structures appear in SMILES notation.

A short description of this assay: Inhibition of juvenile hormone esterase.

By pIC50 is commonly meant the IC50 on a negative log10 scale, so that one unit is a factor of ten. The molecule `CCc1ccccc1SCC(=O)C(F)(F)F` had a pIC50 of 5.54. The result for `Cc1ccccc1SCC(=O)C(F)(F)F` reads 5.37; that for `CC(CCC1OC1(C)C)CC1OC1c1ccc(C(=O)C(F)(F)F)cc1` (configuration not stated), 3.3; that for `CC(C/C=C\c1ccc(C(=O)C(F)(F)F)cc1)CCC1OC1(C)C` (configuration not stated), 6.52. For the molecule `O=C(CSc1cc(Cl)c(Cl)cc1Cl)C(F)(F)F`, the pIC50 is recorded as 7.49. The result for `CCCCCCCCCSCC(=O)C(F)(F)F` reads 8.43; that for `CCCCCCCC[S+]([O-])CC(=O)C(F)(F)F` (configuration not stated), 7.37; that for `CCCCCCCCCCC#CC(=O)C(F)(F)F`, 7.57.

`O=C(CSc1ccccc1Br)C(F)(F)F`: the pIC50 worked out at 6.17. `CCCCCCCCCCC(=O)C(F)(F)F`: the pIC50 was found to be 6.66. The result for `O=C(CSc1ccc(O)cc1)C(F)(F)F` reads 5.21.

In the case of `Cc1cc(SCC(=O)C(F)(F)F)ccc1Br`, the pIC50 was found to be 7.89. The result for `CN(C)c1ccc(SCC(=O)C(F)(F)F)cc1` reads 7.05; that for `CC(C)(C)SCC(=O)C(F)(F)F`, 5.3; that for `O=C(CSCc1ccc(Cl)cc1)C(F)(F)F`, 5.34. The result for `CCCCCCCCCCCCS(=O)(=O)CC(=O)C(F)(F)F` reads 7.21. The result for `O=C(CS(=O)(=O)c1ccccc1)C(F)(F)F` reads 3.98; that for `CCCCCCCCSCC(=O)C(F)(F)F`, 8.62. Turning to `O=C(CSc1ccc(Cl)cc1)C(F)(F)F`, the pIC50 is recorded as 5.89.

Regarding `O=C(C#Cc1ccccc1)C(F)(F)F`, the pIC50 came to 5.27. To `CCCCCCCC(C)SCC(=O)C(F)(F)F` (configuration not stated) belongs 9.77; to `CCCCCCCC(CC)SCC(=O)C(F)(F)F` (configuration not stated), 8.24.

Molecule `O=C(CSc1ccccc1Cl)C(F)(F)F` had a pIC50 of 5.68.

In turn, `CCCCCCCCC#CC(=O)C(F)(F)F` showed a negative logarithm of the IC50 (pIC50) of 7.24. To `COC(C)(C)CCC/C(C)=C\CCSCC(=O)C(F)(F)F` belongs 8.49; to `Cc1ccc(SCC(=O)C(F)(F)F)c(C)c1`, 6.04.

With `O=C(CS(=O)(=O)CCc1ccccc1)C(F)(F)F`, the pIC50 stood at 6.31. To `Cc1cccc(SCC(=O)C(F)(F)F)c1` belongs 6.89; to `CCCCCCCCCCCCC(=O)C(F)(F)F`, 7.

Turning to `O=C(CSc1c(Cl)c(Cl)c(Cl)c(Cl)c1Cl)C(F)(F)F`, the pIC50 is given as 7.8. To `CCCCCCCCCCCSCC(=O)C(F)(F)F` belongs 7.37; to `O=C(CSCc1ccccc1)C(F)(F)F`, 4.82; to `CC(C)CCSCC(=O)C(F)(F)F`, 5.6. The result for `CC(C)=CCCC(C)C/C=C\c1ccc(C(=O)C(F)(F)F)cc1` (configuration not stated) reads 6.7. To `CCCCCCCCCCS(=O)(=O)CC(=O)C(F)(F)F` belongs 7.36; to `Cc1ccc(C)c(SCC(=O)C(F)(F)F)c1`, 6.77; to `O=C(CSCc1ccccc1Cl)C(F)(F)F`, 5.18. Turning to `O=C(CSC1CCCCC1)C(F)(F)F`, the pIC50 stood at 5.28. The result for `O=C(CSc1cccc(C(F)(F)F)c1)C(F)(F)F` reads 5.6. The result for `O=C(CSCCCc1ccccc1)C(F)(F)F` reads 6.77. For the molecule `COc1ccccc1SCC(=O)C(F)(F)F`, the pIC50 amounted to 5.7. The result for `COc1ccc(C(=O)C(F)(F)F)cc1` reads 4.15; that for `CCCCCCCCSC(C)C(=O)C(F)(F)F` (configuration not stated), 9.06; that for `CC(C)=CCC/C(C)=C\CCSCC(=O)C(F)(F)F`, 8.51.

Turning to `CCCCC#CC(=O)C(F)(F)F`, the pIC50 is 5.49. To `CC(C)=CCCC(C)CCSCC(=O)C(F)(F)F` (configuration not stated) belongs 8.35; to `CCCCCCCCCCCCCCSCC(=O)C(F)(F)F`, 6.4. The result for `Cc1ccc(SCC(=O)C(F)(F)F)cc1C` reads 7.96; that for `CCCCCCCCSC(CCC)C(=O)C(F)(F)F` (configuration not stated), 4.09; that for `Cc1cc(C(C)(C)C)ccc1SCC(=O)C(F)(F)F`, 8.52. The result for `CCCCCCCSCC(=O)C(F)(F)F` reads 8.09. The molecule `O=C(CSc1ccccc1Oc1ccccc1)C(F)(F)F` registered a pIC50 of 6.66. As to `CCCCCCCCCCCCCCCCCC(=O)C(F)(F)F`, the pIC50 is recorded as 4.85. For `O=C(CSc1ccc(Br)cc1)C(F)(F)F`, the pIC50 came to 6.39. The result for `COC(C)(C)CCCC(C)CCSCC(=O)C(F)(F)F` (configuration not stated) reads 8.12. To `CCCCCCC#CC(=O)C(F)(F)F` belongs 6.4. The result for `CCCCCCCC(=O)C(F)(F)F` reads 4.17; that for `CCCCCCCCCCCCCSCC(=O)C(F)(F)F`, 7.35; that for `O=C(CSc1ccccc1)C(F)(F)F`, 5.06. The molecule `Cc1cccc(CSCC(=O)C(F)(F)F)c1` had a pIC50 of 5.1. `O=C(CSc1c(F)c(F)cc(F)c1F)C(F)(F)F`: the pIC50 stood at 5.92.

Molecule `Cc1cc(C)cc(SCC(=O)C(F)(F)F)c1` registered a pIC50 of 5.74. To `CCC(C)CSCC(=O)C(F)(F)F` (configuration not stated) belongs 5.8.

`O=C(CSc1c(F)c(F)c(F)c(F)c1F)C(F)(F)F`: the pIC50 is reported as 4.96.

With `CCCCCCCCCCSCC(=O)C(F)(F)F`, the pIC50 was 7.7. Regarding `CCCCCCCC(C)SC(C)C(=O)C(F)(F)F` (configuration not stated), the negative-log IC50 (pIC50) was 8.07.

In turn, `CCCCC(C)(C)CC(C)CSCC(=O)C(F)(F)F` (configuration not stated) came in with a pIC50 of 7.98. The result for `O=C(CSc1ccccc1CO)C(F)(F)F` reads 5.15. The result for `CCCCCCCCC(=O)C(F)(F)F` reads 5.17; that for `CCCCCCCCSC(CC)C(=O)C(F)(F)F` (configuration not stated), 5.32.

With `CCCCCCCCCCCCCC(=O)C(F)(F)F`, the pIC50 amounted to 5.41.

In turn, `CCCCCCCCS(=O)(=O)CC(=O)C(F)(F)F` gave a negative-log IC50 (pIC50) of 6.9. The result for `O=C(CSc1c(Cl)cccc1Cl)C(F)(F)F` reads 7.11; that for `COc1ccc(SCC(=O)C(F)(F)F)cc1`, 5.89; that for `CCCCCCCC(CCC)SCC(=O)C(F)(F)F` (configuration not stated), 7.89. The result for `O=C(CSc1ccc(F)cc1)C(F)(F)F` reads 5.08. To `CCCCCC/C=C/C(=O)C(F)(F)F` belongs 5.14. In turn, `O=C(CSCCc1ccccc1)C(F)(F)F` registered a pIC50 of 5.49. `CCCCCCC(=O)C(F)(F)F`: the pIC50 amounted to 3.66. To `Cc1cccc(C)c1SCC(=O)C(F)(F)F` belongs 6.92. To `CCCCCSCC(=O)C(F)(F)F` belongs 6.11; to `CCCCCCCCCCCCc1ccc(CSCC(=O)C(F)(F)F)cc1`, 5.8; to `O=C(CSc1cc(Cl)ccc1Cl)C(F)(F)F`, 7.64. The result for `CCCCCCCCCCCCCCCCCCSCC(=O)C(F)(F)F` reads 6.3. `CCCCCCCC/C=C/C(=O)C(F)(F)F` showed a pIC50 of 6.06. The result for `O=C(CSC1CCCC1)C(F)(F)F` reads 5.01. For the molecule `CC(C)c1ccccc1SCC(=O)C(F)(F)F`, the pIC50 was determined as 6.47.

For `CC(C)(C)c1ccc([S+]([O-])CC(=O)C(F)(F)F)cc1` (configuration not stated), the pIC50 was found to be 7.64. To `Cc1ccccc1CSCC(=O)C(F)(F)F` belongs 4.9; to `Cc1ccc(SCC(=O)C(F)(F)F)cc1`, 6.96; to `O=C(C[S+]([O-])c1ccccc1)C(F)(F)F` (configuration not stated), 4.21.

Consider `CCCCCCCCCCCCSCC(=O)C(F)(F)F`, for which the pIC50 was determined as 7.82.

Consider `CCCCCCCC(CCCC)SCC(=O)C(F)(F)F` (configuration not stated), for which the pIC50 was found to be 7.16.

Turning to `O=C(CSc1cccc(Cl)c1)C(F)(F)F`, the pIC50 is 6.4. The result for `CCCCCCCCCCCCCCCCSCC(=O)C(F)(F)F` reads 6.2; that for `CCCCSCC(=O)C(F)(F)F`, 5.82; that for `O=C(CSc1ccc(Cl)c(Cl)c1)C(F)(F)F`, 7.7.

`O=C(c1ccccc1)C(F)(F)F` displayed a pIC50 of 3.04. Molecule `O=C(CSc1cccc(Br)c1)C(F)(F)F` returned a pIC50 of 6.06. The result for `COc1cccc(SCC(=O)C(F)(F)F)c1` reads 5.89. The result for `CCCCCCCCSC(C(=O)C(F)(F)F)c1ccccc1` (configuration not stated) reads 4.09. The result for `CCCCCCCCCCCCC#CC(=O)C(F)(F)F` reads 8; that for `CCCCCC/C=C\C(=O)C(F)(F)F`, 4.1. `Cc1ccc(CSCC(=O)C(F)(F)F)cc1` had a pIC50 of 5.2. To `CCCCCCCCCCCCCCC(=O)C(F)(F)F` belongs 5.14; to `O=C(CSc1ccccc1Nc1ccccc1)C(F)(F)F`, 7.52; to `CC(C)(C)c1ccc(SCC(=O)C(F)(F)F)cc1`, 8.12.
